According to publication PMC4355058 (Analytical biochemistry, 2014):
Where a name gives a salt, the structure may show the parent alone. Read-outs that look alike come from different tables or passages of the source.

Tests used:
[1] = target: A2a-8M receptor (Homo sapiens, UniProt P29274, A54L/K122A/L202A/L235A/N154A/R107A/S277A/T88A/V239A); experiment: Isothermal chemical denaturation
[2] = test system: WT A2a receptor; conditions: cited from earlier work
[3] = target: A2a-8M (Homo sapiens, UniProt P29274, A54L/K122A/L202A/L235A/R107A/S277A/T88A/V239A); experiment: SPR analysis of small molecule binding
Chain of A2a-8M (Homo sapiens, UniProt P29274, A54L/K122A/L202A/L235A/R107A/S277A/T88A/V239A) (P29274 1-317 A54L/T88A/R107A/K122A/L202A/L235A/V239A/S277A): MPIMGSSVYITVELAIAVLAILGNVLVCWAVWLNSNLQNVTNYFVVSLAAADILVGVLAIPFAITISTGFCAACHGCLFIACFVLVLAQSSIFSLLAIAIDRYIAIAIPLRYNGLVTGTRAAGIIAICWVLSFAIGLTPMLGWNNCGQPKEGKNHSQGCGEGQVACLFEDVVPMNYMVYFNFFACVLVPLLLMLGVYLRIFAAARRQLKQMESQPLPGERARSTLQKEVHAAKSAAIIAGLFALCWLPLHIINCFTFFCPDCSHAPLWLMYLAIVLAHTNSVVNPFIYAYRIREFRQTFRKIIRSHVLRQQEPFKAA

[4] = target: A2aR; conditions: read-out: Kd, SPR study at 10°C; cited from earlier work
[5] = target: A2a-8M; experiment: SPR analysis of small molecule binding; conditions: read-out: SPR Kd
[6] = [L] = 21 μM, 25°C, 338 nm, apo 1.37
[7] = [L] = 21 μM, 25°C, 338 nm, apo 2.90
[8] = [L] = 21 μM, 25°C, protein […], 338 nm, apo 3.96
[9] = [L] = 2 μM, 25°C, 338 nm (SCH58261 at 316 nm), apo 2.90 (338 nm), 2.88 (316 nm)
[10] = [L] = 2 μM, 25°C, 338 nm (SCH58261 at 316 nm), apo 1.37

Chain of A2a-8M receptor (P29274 1-316 A54L/T88A/R107A/K122A/N154A/L202A/L235A/V239A/S277A): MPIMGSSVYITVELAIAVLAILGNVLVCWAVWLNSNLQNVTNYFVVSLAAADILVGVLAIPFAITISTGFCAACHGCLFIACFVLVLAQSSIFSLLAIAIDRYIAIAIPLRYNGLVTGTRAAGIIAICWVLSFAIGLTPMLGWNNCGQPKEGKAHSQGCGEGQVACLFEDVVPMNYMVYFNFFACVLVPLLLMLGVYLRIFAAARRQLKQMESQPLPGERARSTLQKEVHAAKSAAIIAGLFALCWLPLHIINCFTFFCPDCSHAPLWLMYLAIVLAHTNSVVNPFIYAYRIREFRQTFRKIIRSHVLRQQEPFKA

| Structure (SMILES) | m [1, 6] | C½ (midpoint of denaturation curve) [1, 7] | ΔG (Gibbs energy of protein stability in presence of ligand) [1, 8] | C½ (midpoint of denaturation curve) [1, 9] | other results |
| --- | --- | --- | --- | --- | --- |
| CCOc1nc2c(N)ncnc2n1CC [ANR94] | 1.65 kcal/mol×M | 3.53 M GuHCl | 5.82 kcal/mol |  |  |
| CCNC(=O)[C@H]1O[C@@H](n2cnc3c(N)nc(NCCc4ccc(CCC(=O)O)cc4)nc32)[C@H](O)[C@@H]1O [CGS21680] |  |  |  |  | binding affinity [2]: > 10 µM |
| Cn1c(=O)c2c(ncn2C)n(C)c1=O [Caffeine] |  |  |  | 3.28 M GuHCl |  |
| N=C(N)NC(=O)Cc1c(Cl)cccc1Cl [Guanfacine HCl] | 1.37 kcal/mol×M | 2.25 M GuHCl | 3.08 kcal/mol |  |  |
| CCCCC#Cc1nc(NC)c2ncn([C@@H]3O[C@H](CO)[C@@H](O)[C@H]3O)c2n1 [Hemado] | 1.77 kcal/mol×M | 2.59 M GuHCl | 4.59 kcal/mol |  |  |
| CCCn1c(=O)[nH]c2nc(-c3ccc(S(=O)(=O)O)cc3)[nH]c2c1=O [PSB1115] |  |  |  | 3.82 M GuHCl | m [1, 10]: 1.63 kcal/mol×M; Kd [4]: 0.158 µM |
| Nc1nc2c(cnn2CCc2ccccc2)c2nc(-c3ccco3)nn12 [SCH58261] |  |  |  |  | Kd [5]: 0.014 µM; C½ (midpoint of denaturation curve) [1]: 3.91 M GuHCl; m [1]: 1.80 kcal/mol×M; ΔG (Gibbs energy of protein stability in presence of ligand) [1]: 7.01 kcal/mol |
| COc1ccc(CCCn2ncc3c2nc(N)n2nc(-c4ccco4)nc32)cc1 [SCH442416] |  |  |  |  | binding affinity [2]: 50 pm |
| CN1CCc2cccc(Cl)c2CC1.Cl [SKF86466 HCl] | 1.55 kcal/mol×M | 2.18 M GuHCl | 3.38 kcal/mol |  |  |
| COC1CCN(c2cccc(-c3cc(NC(C)=O)nc(-n4nc(C)cc4C)n3)n2)CC1 [TC-G1004] |  |  |  |  | m ([1]; [L] = 0.4 μM, 25°C, 338 nm (SCH442416 at 316 nm), apo 1.37): 1.42 kcal/mol×M |

The next lines start with results.

| m [1, 6] | C½ (midpoint of denaturation curve) [1, 7] | ΔG (Gibbs energy of protein stability in presence of ligand) [1, 8] | C½ (midpoint of denaturation curve) [1, 9] | Structure (SMILES) | other results |
| --- | --- | --- | --- | --- | --- |
|  |  |  | 3.18 M GuHCl | N#Cc1c(N)nc(SCc2ncc[nH]2)c(C#N)c1-c1ccc(O)cc1 [LUF5834] | m [1, 10]: 1.90 kcal/mol×M |
|  |  |  | 3.20 M GuHCl | CCO/C(O)=C1\C(C)=NC(c2ccccc2)=C(C(=O)OCc2ccc([N+](=O)[O-])cc2)C1C#Cc1ccccc1 (stereo not shown) [MRS1334] | Kd [3]: 5.9 µM; Kd [1]: 5.5 µM; m [1, 10]: 1.30 kcal/mol×M |
| 1.56 kcal/mol×M | 2.22 M GuHCl | 3.47 kcal/mol |  | Nc1nc(SCCc2ccc(S(=O)(=O)O)cc2)nc2c1ncn2[C@@H]1O[C@H](CO)[C@@H](O)[C@H]1O [PSB0777] |  |
|  |  |  | 2.98 M GuHCl | c1ccc(NCc2ccc(CNc3ccccn3)cc2)nc1 [WZ811] | m [1, 10]: 1.19 kcal/mol×M |
| 1.50 kcal/mol×M | 3.41 M GuHCl | 5.11 kcal/mol |  | Cl.Cl.OCCOCCN1CCN(Cc2cccc(Oc3ccccc3)c2)CC1 [ZK756326] |  |
